Experimental findings from ChEMBL document CHEMBL4304838, “Building Bridges in a Series of Estrogen Receptor Degraders: An Application of Metathesis in Medicinal Chemistry” (ACS Med Chem Lett, 2019) are described below.

Converted amounts (≈) assume the structure as drawn. Where only a bound is given, the exact number is not on record here.

Data set [1] can be described thus: Stability of the compound assessed as parent compound remaining in buffer at pH 7.4 measured after 4 days by 1H-NMR analysis. It counts as physicochemical. To be noted: read-out: Stability.
A short description of data set [2]: physchem. To be noted: buffer, pH 7.4.
Data set [3] can be described thus: in vitro. To be noted: rat, hepatocytes.
For data set [4] the following is noted: human, plasma.
Description: Fraction unbound in human plasma by equilibrium dialysis method
Data set [5] deals with T1, Estrogen receptor (Homo sapiens, UniProt P03372).
T1 sequence (P03372 whole entry): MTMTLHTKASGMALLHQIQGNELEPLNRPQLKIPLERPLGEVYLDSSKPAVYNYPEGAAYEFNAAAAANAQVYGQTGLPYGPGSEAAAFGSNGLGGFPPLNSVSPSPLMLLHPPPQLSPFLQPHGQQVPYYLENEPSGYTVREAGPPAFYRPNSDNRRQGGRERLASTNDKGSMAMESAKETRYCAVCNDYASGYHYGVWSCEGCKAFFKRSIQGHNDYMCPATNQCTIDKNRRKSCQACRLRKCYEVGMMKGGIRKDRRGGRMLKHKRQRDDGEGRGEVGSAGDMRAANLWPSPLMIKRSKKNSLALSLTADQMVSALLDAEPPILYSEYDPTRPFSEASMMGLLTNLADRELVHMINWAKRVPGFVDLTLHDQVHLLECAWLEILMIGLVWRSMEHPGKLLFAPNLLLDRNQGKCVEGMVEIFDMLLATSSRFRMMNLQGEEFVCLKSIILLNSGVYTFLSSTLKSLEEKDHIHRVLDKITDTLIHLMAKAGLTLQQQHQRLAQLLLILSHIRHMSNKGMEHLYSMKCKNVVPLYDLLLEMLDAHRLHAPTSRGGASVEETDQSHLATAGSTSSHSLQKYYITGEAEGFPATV
The data set is described as follows: biochemical.
Description: Displacement of fluorescent labelled fluormone ES2 from human recombinant GST tagged ER alpha LBD ( 282 to 595 residues) expressed in baculovirus infected insect cells measured after 20 mins by TR-FRET Lanthascreen assay

In data set [6] the target is T1, Estrogen receptor.
Description: Induction of ERalpha degradation in human MCF7 cells assessed as downregulation of ER alpha receptor expression measured after 18 to 22 hrs by immunofluorescence assay
The nature of data set [7]: in vitro. The note with it: human, hepatocytes.
Data set [8] has as its target Cytochrome P450 2C9 (Homo sapiens, UniProt P11712). Nature of the data set: Inhibition of CYP2C9 (unknown origin). It counts as ADME.
A short description of data set [9]: Volume of distribution at steady state in rat at 0.5 mg/kg, iv or 1 mg/kg, po. It counts as ADME, organism-based. The note with it: in vivo, read-out: Vdss.
The target in data set [10] is T2, Cytochrome P450 1A2 (Homo sapiens, UniProt P05177).
T2 sequence (P05177 whole entry): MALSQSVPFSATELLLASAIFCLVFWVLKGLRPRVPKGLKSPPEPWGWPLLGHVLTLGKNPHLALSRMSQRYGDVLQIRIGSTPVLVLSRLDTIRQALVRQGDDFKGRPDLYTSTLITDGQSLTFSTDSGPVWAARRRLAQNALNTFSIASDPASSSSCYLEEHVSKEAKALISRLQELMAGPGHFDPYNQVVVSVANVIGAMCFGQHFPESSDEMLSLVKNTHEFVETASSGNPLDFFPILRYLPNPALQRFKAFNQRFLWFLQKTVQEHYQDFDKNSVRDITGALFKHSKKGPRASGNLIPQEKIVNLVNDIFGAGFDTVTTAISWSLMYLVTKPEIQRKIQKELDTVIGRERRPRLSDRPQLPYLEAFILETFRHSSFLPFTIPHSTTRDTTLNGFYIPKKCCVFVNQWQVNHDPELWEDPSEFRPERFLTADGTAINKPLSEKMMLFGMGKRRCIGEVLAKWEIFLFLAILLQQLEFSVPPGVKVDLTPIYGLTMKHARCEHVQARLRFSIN
Nature of the data set: Inhibition of CYP1A2 (unknown origin). It counts as ADME.

Data set [11] is described as follows: Aqueous solubility of the compound in phosphate buffer at pH 7.4 at 25 degC after 24 hrs. It counts as physicochemical.
Data set [12] in a line: Acid dissociation constant, pKa of the compound in potassium chloride at 20 degC by UV absorption analysis. It counts as physicochemical.
Data set [13] is described as follows: Oral bioavailability in rat at 1 mg/kg. It counts as ADME, organism-based. To be noted: in vivo.
Data set [14] in a line: Stability of the compound assessed as parent compound remaining in buffer at pH 7.4 measured after 3 days by 1H-NMR analysis. It counts as physicochemical. The note with it: read-out: Stability.
Data set [15] concerns the target Cytochrome P450 2C19 (Homo sapiens, UniProt P33261). The data set is described as follows: Inhibition of CYP2C19 (unknown origin). It counts as ADME.
The target in data set [16] is Cytochrome P450 2D6 (Homo sapiens, UniProt P10635). Nature of the data set: Inhibition of CYP2D6 (unknown origin). It counts as ADME.
Data set [17] in a line: Half-life in rat at 0.5 mg/kg, iv. It counts as ADME, organism-based. The note with it: in vivo.
Data set [18] is described as follows: Plasma clearance in rat at 0.5 mg/kg, iv or 1 mg/kg, po. It counts as ADME, organism-based.
Data set [19] addresses Cytochrome P450 3A4 (Homo sapiens, UniProt P08684). Nature of the data set: Inhibition of CYP3A4 (unknown origin). It counts as ADME.
Data set [20] can be described thus: Half-life in rat at 1 mg/kg, po. It counts as ADME, organism-based. The note with it: in vivo.
Data set [21] is described as follows: AUC in rat at 1 mg/kg, po. It counts as ADME, organism-based. The note with it: in vivo.
Data set [22] in a line: Base dissociation constant, pKa of the compound in potassium chloride at 20 degC by UV absorption analysis. It counts as physicochemical.
Data set [23] is described as follows: Stability of the compound assessed as parent compound remaining in buffer at pH 7.4 measured after 8 days by 1H-NMR analysis. It counts as physicochemical. To be noted: read-out: Stability.

A word on the logD: it is lipophilicity at a set pH, counting ionised and neutral species. The low end stands for a more hydrophilic compound, the high end for a more lipophilic compound. What is called hepatocyte CLint is a measure of how fast metabolising enzymes remove a compound, apart from limits set by blood flow. Higher therefore signals rapid turnover. The term IC50 denotes the concentration that gives 50% inhibition. A low value points to higher potency. As a reminder, the solubility is how much of the substance goes into solution per volume. A low value points to a poorly soluble substance. Broadly, the pKa is the negative logarithm of the acid dissociation constant. In general, bioavailability refers to the share of a dose that reaches the circulation, judged against a reference dose that is usually intravenous. In general, half-life refers to how long it takes for the measured level to halve. Read a high half-life as slow decline. For orientation: AUC means concentration integrated over time. A low value points to low exposure.

Chain of Cytochrome P450 2C19 (P33261 whole entry): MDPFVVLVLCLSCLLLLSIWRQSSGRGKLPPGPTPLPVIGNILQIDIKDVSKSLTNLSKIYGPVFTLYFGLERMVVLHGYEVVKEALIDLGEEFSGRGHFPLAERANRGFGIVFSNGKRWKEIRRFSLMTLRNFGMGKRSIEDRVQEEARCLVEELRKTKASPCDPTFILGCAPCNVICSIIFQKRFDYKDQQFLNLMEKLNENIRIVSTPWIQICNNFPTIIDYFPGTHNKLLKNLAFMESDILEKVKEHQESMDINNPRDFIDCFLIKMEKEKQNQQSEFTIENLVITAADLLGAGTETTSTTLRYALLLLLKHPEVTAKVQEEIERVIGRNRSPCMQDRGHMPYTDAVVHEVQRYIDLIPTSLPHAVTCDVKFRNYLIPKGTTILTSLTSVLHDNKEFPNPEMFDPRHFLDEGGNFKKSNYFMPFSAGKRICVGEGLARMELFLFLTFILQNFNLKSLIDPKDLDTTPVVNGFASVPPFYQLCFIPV
Chain of Cytochrome P450 2C9 (P11712 whole entry): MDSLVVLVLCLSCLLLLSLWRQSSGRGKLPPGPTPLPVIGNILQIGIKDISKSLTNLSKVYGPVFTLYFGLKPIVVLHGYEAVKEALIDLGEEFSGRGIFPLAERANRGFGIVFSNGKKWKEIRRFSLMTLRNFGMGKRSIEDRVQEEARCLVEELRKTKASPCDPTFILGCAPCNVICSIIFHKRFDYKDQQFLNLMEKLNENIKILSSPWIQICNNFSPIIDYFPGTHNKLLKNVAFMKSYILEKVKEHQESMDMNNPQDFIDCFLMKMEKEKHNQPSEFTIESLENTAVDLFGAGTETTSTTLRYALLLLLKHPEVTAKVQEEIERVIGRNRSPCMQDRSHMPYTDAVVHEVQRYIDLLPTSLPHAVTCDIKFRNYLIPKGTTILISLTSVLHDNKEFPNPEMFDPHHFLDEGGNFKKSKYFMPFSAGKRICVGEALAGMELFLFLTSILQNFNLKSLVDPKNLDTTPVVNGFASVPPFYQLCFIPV
Chain of Cytochrome P450 2D6 (P10635 whole entry): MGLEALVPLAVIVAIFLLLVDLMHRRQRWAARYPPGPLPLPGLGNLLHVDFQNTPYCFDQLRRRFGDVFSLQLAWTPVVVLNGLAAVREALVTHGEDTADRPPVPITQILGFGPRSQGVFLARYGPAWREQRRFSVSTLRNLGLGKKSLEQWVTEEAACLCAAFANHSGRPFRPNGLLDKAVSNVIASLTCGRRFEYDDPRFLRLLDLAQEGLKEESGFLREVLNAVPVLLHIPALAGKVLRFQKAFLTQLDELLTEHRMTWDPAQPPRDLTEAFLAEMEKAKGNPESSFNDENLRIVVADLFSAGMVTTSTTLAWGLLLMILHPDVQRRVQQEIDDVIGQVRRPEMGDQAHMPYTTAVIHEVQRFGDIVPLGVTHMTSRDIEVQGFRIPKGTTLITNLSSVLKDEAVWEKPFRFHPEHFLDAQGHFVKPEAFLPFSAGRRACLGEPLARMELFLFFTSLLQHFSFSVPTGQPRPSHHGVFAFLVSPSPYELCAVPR
Chain of Cytochrome P450 3A4 (P08684 whole entry): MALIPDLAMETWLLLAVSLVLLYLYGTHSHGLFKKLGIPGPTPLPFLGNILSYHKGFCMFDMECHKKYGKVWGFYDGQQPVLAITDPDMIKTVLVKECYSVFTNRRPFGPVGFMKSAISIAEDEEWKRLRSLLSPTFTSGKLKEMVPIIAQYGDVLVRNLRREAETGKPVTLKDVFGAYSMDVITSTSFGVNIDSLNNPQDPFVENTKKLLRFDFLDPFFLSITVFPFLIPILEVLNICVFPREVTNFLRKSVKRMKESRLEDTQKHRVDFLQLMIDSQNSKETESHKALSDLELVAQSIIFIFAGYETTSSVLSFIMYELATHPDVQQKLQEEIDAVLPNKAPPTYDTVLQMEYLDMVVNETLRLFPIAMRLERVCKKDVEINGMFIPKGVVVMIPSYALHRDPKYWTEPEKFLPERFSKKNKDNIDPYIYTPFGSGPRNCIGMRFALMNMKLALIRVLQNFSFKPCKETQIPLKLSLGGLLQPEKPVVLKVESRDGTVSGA

Regarding `C[C@@H]1Cc2c([nH]c3ccccc23)[C@@](C)(c2c(F)cc(/C=C/C(=O)O)cc2F)N1CC(C)(C)F`, the remaining at 96 h in data set [1] amounted to 58%. This molecule also showed a logD in [2] of 2.7. Further, the hepatocyte CLint is 9 µL/min/1e6 cells in [3] and 13 µL/min/1e6 cells in [7]. The same molecule had a Fu in data set [4] of 0.28%. The 50% inhibitory concentration (IC50) in data set [5] is 0.398 nM; in data set [6], 1.26 nM.

As to `CC(C)(F)CN1[C@@H]2CCC[C@@]1(c1c(F)cc(/C=C/C(=O)O)cc1F)c1[nH]c3ccccc3c1C2`, the IC50 was greater than 30 µM in data set [8]; greater than 30 µM in data set [10]; greater than 30 µM in data set [15]; 0.794 nM in data set [5]; greater than 30 µM in data set [16]; 15.8 nM in data set [6]. Also, in data set [19], the half-maximal inhibitory concentration (IC50) was greater than 30 µM. In data set [9], the Vd came to 1.6 L/kg. Moreover, the solubility at 24 h in data set [11] was 734 µM (≈ 344 µg/mL). The values for the pKa in data set [12] and in [22] were 3.8 and 5.7, respectively. This molecule gave a logD in data set [2] of 2.9. This molecule also displayed a bioavailability in data set [13] of 100%. Also, the remaining at 72 h in data set [14] is 100%. Besides, the hepatocyte CLint in [3] turned out to be 26 µL/min/1e6 cells; in [7], 8 µL/min/1e6 cells. In addition, the Fu in data set [4] was 0.45%. Besides, the half-life is 168 min in [17] and 186 min in [20]. For the same molecule, the clearance in data set [18] is 10 mL/min/kg. Moreover, the AUC in data set [21] worked out at 2.7 µM·h.

Molecule `CC(C)(F)CN1[C@@H]2CCC[C@@]1(c1c(F)cc(OCCN3CC(CF)C3)cc1F)c1[nH]c3ccccc3c1C2` yielded a log distribution coefficient (logD) in data set [2] of 5.3. Besides, the intrinsic clearance (hepatocyte CLint) is 17 µL/min/1e6 cells in [3] and 4 µL/min/1e6 cells in data set [7]. Besides, the Fu in [4] is given as 0.17%. For the same molecule, the IC50 in data set [5] and in data set [6] was 2 nM each time. Also, the remaining at 192 h in data set [23] worked out at 100%.

Regarding `C[C@@H]1Cc2c([nH]c3ccccc23)[C@@H](c2c(F)cc(OCCN3CC(CF)C3)cc2F)N1CC(C)(C)F`, the logD in data set [2] was greater than 4.4. Also, the remaining at 192 h in [23] was found to be 100%. Besides, the hepatocyte CLint in data set [7] was less than 1 µL/min/1e6 cells.

`CC(C)(F)CN1[C@@H]2C=CC[C@@]1(c1c(F)cc(/C=C/C(=O)O)cc1F)c1[nH]c3ccccc3c1C2` registered a logD in data set [2] of 2.8. Besides, the hepatocyte CLint in [3] amounted to 8 µL/min/1e6 cells; in [7], 14 µL/min/1e6 cells. The same molecule returned a Fu in [4] of 0.3%. The IC50 is 0.631 nM in data set [5] and 1.58 nM in data set [6]. The remaining at 192 h in [23] is 100%.

Regarding `C[C@@H]1Cc2c([nH]c3ccccc23)[C@@](C)(c2c(F)cc(OCCN3CC(CF)C3)cc2F)N1CC(C)(C)F`, the logD in [2] was greater than 4.4. The hepatocyte CLint in [3] was found to be 18 µL/min/1e6 cells. In data set [4], this molecule registered a Fu of 0.05%. Also, the figures for the IC50 in data set [5] and in data set [6] were 1 nM and 0.251 nM, respectively. The remaining at 192 h in data set [23] was 75%.

In the case of `C[C@@H]1Cc2c([nH]c3ccccc23)[C@@H](c2c(F)cc(/C=C/C(=O)O)cc2F)N1CC(C)(C)F` [AZD-9496], the remaining at 72 h in data set [14] turned out to be 92%. In addition, the hepatocyte CLint is 5 µL/min/1e6 cells in data set [3] and 31 µL/min/1e6 cells in [7]. In addition, in data set [4], the Fu is given as 0.26%.
